The record followed here is ChEMBL document CHEMBL1152048, “N-(1-phenyl-2-benzimidazolyl)-N-phenylurea derivatives as potent in hibitors of acylcoa:cholesterol acyltransferase (ACAT)” (Bioorg Med Chem Lett, 1995).

Test [1] addresses T1, Acyl-CoA:cholesterol acyltransferase (Oryctolagus cuniculus, UniProt Q95214).
T1 sequence (Q95214 whole entry): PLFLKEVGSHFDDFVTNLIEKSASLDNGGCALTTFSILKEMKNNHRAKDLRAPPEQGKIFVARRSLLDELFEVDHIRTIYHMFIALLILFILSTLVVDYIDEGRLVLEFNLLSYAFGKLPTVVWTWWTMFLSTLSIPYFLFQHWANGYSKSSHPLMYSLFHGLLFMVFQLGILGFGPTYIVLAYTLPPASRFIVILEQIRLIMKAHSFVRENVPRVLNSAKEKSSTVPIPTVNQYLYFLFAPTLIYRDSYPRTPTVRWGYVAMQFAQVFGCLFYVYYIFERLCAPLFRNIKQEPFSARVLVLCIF
The experiment in a line: In vitro inhibitory activity towards acyl CoA cholesterol acyltransferase (ACAT) of cholesterol-fed rabbits by the displacement of [14C]oleolyl-CoA. (In general: Loss of bound radioactivity is the signal in a displacement assay; it reports binding, not function.)

The target in test [2] is T2, Acyl-CoA:cholesterol acyltransferase (Oryctolagus cuniculus) (UniProt Q95214).
T2 sequence (whole entry): T1 sequence (Q95214 whole entry)
As to the kind of experiment: In vitro inhibitory activity towards acyl CoA cholesterol acyltransferase (ACAT) of cholesterol-fed rabbits by the displacement of [14C]oleolyl-CoA at 1 uM.

The subject of another test is Cricetinae gen. sp. As to the kind of experiment: Compound was tested in vivo at a dose of 10 (mg/kg) for percent inhibition in increased serum total cholesterol in golden hamsters fed with a diet containing 2% cholesterol. Type of test: functional, Mesocricetus auratus.

The term IC50 denotes the concentration needed to halve the response being measured. Low values mean higher potency, high ones lower potency. For orientation: inhibition means the change of the read-out against control, counted positive when it falls. Low readings indicate a response near the control, high ones a response far below the control.

Compound `Cc1ncccc1-n1c(NC(=O)Nc2c(C(C)C)cccc2C(C)C)nc2ccccc21` displayed an IC50 in test [1] of 100 nM. As for `Cc1ccccc1-n1c(NC(=O)Nc2c(C(C)C)cccc2C(C)C)nc2ccccc21`, the half-inhibitory concentration (IC50) in test [1] was determined as 19 nM. Turning to `Cc1cccc(C)c1NC(=O)Nc1nc2ccccc2n1-c1ccccc1Cl`, in test [1], the half-inhibitory concentration (IC50) stood at 420 nM. `CC(C)c1cccc(C(C)C)c1NC(=O)Nc1nc2ccccc2n1-c1cc(C(=O)O)ccc1Cl` returned an inhibition in test [2] of 2%. Compound `CC(C)c1cccc(C(C)C)c1NC(=O)Nc1nc2ccccc2n1-c1ccccc1C(F)(F)F` returned an IC50 in test [1] of 72 nM. That is a double-digit nanomolar value. With `CC(C)c1cccc(C(C)C)c1NC(=O)Nc1nc2ccccc2n1-c1ccccc1Cl`, in test [1], the 50% inhibitory concentration (IC50) came to 18 nM. This compound yielded a Reduction in the test on Cricetinae gen. sp. of 80%.

Regarding `CC(C)c1cccc(C(C)C)c1NC(=O)Nc1nc2ccccc2n1-c1ccc(Cl)cc1`, the IC50 in test [1] amounted to 280 nM. For the compound `CC(C)c1cccc(C(C)C)c1NC(=O)Nc1nc2ccccc2n1-c1ccccc1O`, the IC50 in test [1] was found to be 200 nM.

Turning to `CC(C)c1cccc(C(C)C)c1NC(=O)Nc1nc2ccccc2n1-c1ncccc1Cl`, the IC50 in test [1] amounted to 100 nM. The compound `CC(C)c1cccc(C(C)C)c1NC(=O)Nc1nc2ccccc2n1-c1ccccc1N(C)C` yielded a half-inhibitory concentration (IC50) in test [1] of 41 nM. In the test on Cricetinae gen. sp., this compound displayed a Reduction of 102%. `CC(C)c1cccc(C(C)C)c1NC(=O)Nc1nc2ccccc2n1-c1cccc(Cl)c1` came in with an IC50 in test [1] of 20 nM.

Regarding `Cc1cc(C)c(NC(=O)Nc2nc3ccccc3n2-c2c(Cl)cccc2Cl)c(C)c1`, the inhibition in test [2] amounted to 24%. Consider `CC(C)c1cccc(C(C)C)c1NC(=O)Nc1nc2ccccc2n1-c1c(Cl)cccc1Cl`, for which the IC50 in test [1] was 11 nM. This compound also registered a Reduction with Cricetinae gen. sp. of 74%. The compound `COc1ccccc1-n1c(NC(=O)Nc2c(C(C)C)cccc2C(C)C)nc2ccccc21` had a half-inhibitory concentration (IC50) in test [1] of 20 nM.

In turn, `CC(C)c1cccc(C(C)C)c1NC(=O)Nc1nc2ccccc2n1-c1ccccc1` registered an IC50 in test [1] of 66 nM. This IC50 lies about 3.3-fold higher than the previous one. In the case of `CC(C)c1cccc(C(C)C)c1NC(=O)Nc1nc2ccccc2n1-c1ccccc1Br`, the IC50 in test [1] stood at 22 nM. The compound also registered a Reduction with Cricetinae gen. sp. of 37%. In the case of `O=C(Nc1ccc(F)cc1F)Nc1nc2ccccc2n1-c1ccccc1Cl`, the inhibition in test [2] worked out at 27%. For the compound `CC(C)c1cccc(C(C)C)c1NC(=O)Nc1nc2cccnc2n1-c1ccccc1Cl`, the IC50 in test [1] was found to be 33 nM. The Reduction with Cricetinae gen. sp. turned out to be 76%.
